Experimental data reported in patent publication EP4678639A1, “SALT OF BENZIMIDAZOLE DERIVATIVE” (JW Pharmaceutical Corporation, priority 2023, dated 2024).
“Also recorded” adds a separate entry of the source. Counter-ions that a name gives are not always drawn. Like-named read-outs stand apart in the source and are kept apart here.

How the values were obtained:
[1] = Photostability test, visible light (1.2 Mlux·hr) exposure; details: for Initial (%) Degradant / Initial (%) Total Related substances: Table 11, initial; for After (%) Degradant / After (%) Total Related substances: Table 11 under heading Visible Light (1.2 Mlux-hr) Exposure Test; for Change (%) Degradant: Table 11, after exposure vs initial; for Change in Quality (%) Light (Visible) Degradant: Table 12 summary
Description: (§1) A photostability comparative test was conducted on each of the above-mentioned prepared tegoprazan acid addition salts. The test was conducted by exposing the sample to light with an energy of 200 W hr/m^2 of ultraviolet light and 1.2 Mlux hr of visible light in accordance with The International Council for Harmonisation of Technical Requirements for Pharmaceuticals for Human Use (ICH) guideline, with the samples packaged in a single PE bag and spread thinly enough to ensure exposure to the light source, taking humidity stability into consideration. The purity of the acid addition salts and the change in the amount of degradants at the initial time point and after exposure to ultraviolet light or visible light were measured by HPLC.

[2] = Solid-state stress stability test (humidity 90 % RH); details: for Initial (%) Degradant / Initial (%) Total Related substances: Table 9, initial; for Remarks: state of the solid; for Change in Quality (%) 90 % RH (4 weeks) Degradant / Change in Quality (%) 90 % RH (4 weeks) Purity: Table 12 summary
Description: (§2) Operation and Calculation: The blank solution, standard solution, and test solution were sequentially tested under the instrument operating conditions according to the liquid chromatography method in the General Test Methods of the 12th Edition of the Korean Pharmacopoeia, and the amount of related substances was calculated using the following equation. Amount of each related; substance (%) = (AT)/(AS) × (CS)/(CT) × (Molecular weight; of the sample)/(Molecular weight; of the standard; product) × P × (1)/(RR; F) [formula] AT = Area of each related substance peak obtained from the test solution AS = Area of the tegoprazan peak obtained from the standard solution CS = Concentration of standard solution (mg/mL) CT = Concentration of test solution (mg/mL) P = Purity/Assay/Potency (%) of standard product RRF = Relative response factor (1.0)
(§3) A solid-state stability comparative test was conducted on each of the above-mentioned prepared tegoprazan acid addition salts. The stability comparative test was conducted for 1 month under the conditions shown in Table 6 below in accordance with The International Council for Harmonisation of Technical Requirements for Pharmaceuticals for Human Use (ICH) guideline, and the purity of the acid addition salt, total related substances, and the content of degradants were measured by HPLC at the initial time point and after 1 month. Total related substances and degradants were measured according to the related substance test method (HPLC).
3) Stress Stability (humidity 90 % RH)

[3] = Solid-state accelerated stability test (40 ± 2 °C/RH 75 ± 5 %); details: for After 1 Month (%) Degradant / After 1 Month (%) Total Related substances / Change (%) Degradant: 40 ± 2 °C / RH 75 ± 5 %; for Change (%) Degradant: 1 month vs initial; for Initial (%) Total Related substances / Initial (%) Degradant: Table 7, initial; for Initial (%) Degradant: degradant of Formula 4; for Change in Quality (%) Accelerated (4 weeks) Purity / Change in Quality (%) Accelerated (4 weeks) Degradant: Table 12 summary
Description: as §2, §3

[4] = Solid-state stress stability test (temperature 60 °C); details: for total related substances increased after 1 month / After 1 Month (%) Degradant / After 1 Month (%) Total Related substances / change in appearance, change in the color of the solid / Change (%) Degradant / Remarks: 60 °C; for After 1 Month (%) Degradant / After 1 Month (%) Total Related substances / change in appearance, change in the color of the solid / Remarks: 1 month; for Change (%) Degradant: 1 month vs initial; for Remarks: appearance; for Initial (%) Degradant / Initial (%) Total Related substances: Table 8, initial; for Change in Quality (%) 60 °C (4 weeks) Purity / Change in Quality (%) 60 °C (4 weeks) Degradant: Table 12 summary
[5] = Photostability test, ultraviolet light (200 W·hr/m2) exposure; details: for After Ultraviolet Light Exposure (200 W hr/m2)(%) Degradant / After Ultraviolet Light Exposure (200 W hr/m2)(%) Total Related substances: Table 10, UV 200 W·hr/m2, PE bag; for Change (%) Degradant: Table 10, after UV exposure vs initial; for Initial (%) Degradant / Initial (%) Total Related substances: Table 10, initial
Description: as §1

[6] = Liquid stability comparative test (20 mg/mL in purified water, 40 °C, 24 hours, HPLC); assay type: physicochemical; details: for After 24 hours Purity (%) / After 24 hours Degradant (%): 40 °C; for solid precipitation / solution state: stored at 40 °C for 24 hours
Description: The analysis conditions are as follows.
Each sample was dissolved in purified water to prepare a solution with a concentration of 20 mg/mL, stored at an external temperature of 40 °C, and analyzed by HPLC at the initial time point and after 24 hours to measure purity, and the change in the generated degradant (Formula 4) was measured. The analysis of total related substances and degradants was performed by taking a liquid from a solution prepared at a concentration of 20 mg/mL, diluting it to a concentration of 4 mg/mL with the diluent of the related substance test method (HPLC), and measuring it as a test solution, and analyzing it according to the related substance test method (HPLC).

[7] = 20 mg/mL in purified water, initial time point
[8] = degradant of Formula 4, 20 mg/mL in purified water

Cc1nc2c(O[C@H]3CCOc4cc(F)cc(F)c43)cc(C(=O)N(C)C)cc2[nH]1 [Hydrobromide Salt]
Remarks ([1]; Table 11, after exposure, appearance): Discolorat ion
Initial (%) Degradant [1]: 1.972%
Initial (%) Total Related substances [1]: 2.173%
After (%) Degradant [1]: 1.956%
After (%) Total Related substances [1]: 2.227%
changes in appearance ([1]; visible light exposure): changes in appearance
After 1 Month (%) Degradant ([2]; 90 % RH, 1 month): 3.698%
After 1 Month (%) Total Related substances ([2]; 90 % RH, 1 month): 3.922%
Change (%) Degradant ([2]; 90 % RH, 1 month vs initial): 1.726%
Initial (%) Degradant [2]: 1.972%
Initial (%) Total Related substances [2]: 2.173%
After 1 Month (%) Degradant [3]: 2.188%
After 1 Month (%) Total Related substances [3]: 2.519%
Change (%) Degradant [3]: 0.216%
Initial (%) Total Related substances [3]: 2.173%
Initial (%) Degradant [3]: 1.972%
increase in total related substances after 1 month ([3]; accelerated stability): ≥ 0.3%
total related substances increased after 1 month [4]: ≥ 5.0%
After 1 Month (%) Degradant [4]: 7.787%
After 1 Month (%) Total Related substances [4]: 8.905%
change in appearance, change in the color of the solid [4]: change in appearance
Change (%) Degradant [4]: 5.815%
Remarks [4]: Discolorat ion
Initial (%) Degradant [4]: 1.972%
Initial (%) Total Related substances [4]: 2.173%
After Ultraviolet Light Exposure (200 W hr/m2)(%) Degradant [5]: 2.028%
After Ultraviolet Light Exposure (200 W hr/m2)(%) Total Related substances [5]: 2.265%
Change (%) Degradant [5]: 0.056%
Initial (%) Degradant [5]: 1.972%
Initial (%) Total Related substances [5]: 2.173%

Cc1nc2c(O[C@H]3CCOc4cc(F)cc(F)c43)cc(C(=O)N(C)C)cc2[nH]1 [Hydrochloride Salt (Amorphous Form)]
Amount of Change Degradant (%) [6]: 0.21%
After 24 hours Purity (%) ([6]; 20 mg/mL in purified water): 99.69%
Initial Purity (%) [6, 7]: 99.94%
Initial (%) Total Related substances [1]: 0.207%
After (%) Total Related substances [1]: 0.637%
After 1 Month (%) Total Related substances ([2]; 90 % RH, 1 month): 0.335%
change ([2]; 90 % RH, 1 month): ≤ 0.15%
Initial (%) Total Related substances [2]: 0.207%
After 1 Month (%) Total Related substances [3]: 0.467%
Initial (%) Total Related substances [3]: 0.207%
Change in Quality (%) Accelerated (4 weeks) Purity [3]: -0.260%
After 1 Month (%) Total Related substances [4]: 1.536%
Initial (%) Total Related substances [4]: 0.207%
Change in Quality (%) 60 °C (4 weeks) Purity [4]: -1.329%
After Ultraviolet Light Exposure (200 W hr/m2)(%) Total Related substances [5]: 0.313%
Initial (%) Total Related substances [5]: 0.207%

Cc1nc2c(O[C@H]3CCOc4cc(F)cc(F)c43)cc(C(=O)N(C)C)cc2[nH]1 [Malate Salt]
After 24 hours Purity (%) ([6]; 20 mg/mL in purified water): Solid precipitated
Initial Purity (%) [6, 7]: 99.98%
After 24 hours Degradant (%) [6, 8]: Solid precipitated
solid precipitation / solution state [6]: solid precipitation; also recorded: solids were precipitated
Change (%) Degradant [1]: 0.031%
Initial (%) Degradant [1]: 0.004%
Initial (%) Total Related substances [1]: 0.146%
After (%) Degradant [1]: 0.035%
After (%) Total Related substances [1]: 0.263%
Change in Quality (%) Light (Visible) Degradant [1]: 0.031%
absorb moisture and deliquesce / melted ([2]; 90 % RH): absorb moisture and deliquesce; also recorded: melted
Remarks ([2]; 90 % RH, 1 month): Melted
Initial (%) Degradant [2]: 0.004%
Initial (%) Total Related substances [2]: 0.146%
Change in Quality (%) 90 % RH (4 weeks) Degradant [2]: Melted
Change in Quality (%) 90 % RH (4 weeks) Purity [2]: Melted
After 1 Month (%) Degradant [3]: 0.049%
After 1 Month (%) Total Related substances [3]: 0.236%
Change (%) Degradant [3]: 0.045%
Initial (%) Total Related substances [3]: 0.146%
Initial (%) Degradant [3]: 0.004%
Change in Quality (%) Accelerated (4 weeks) Degradant [3]: 0.045%
Change in Quality (%) Accelerated (4 weeks) Purity [3]: -0.090%
purity change after 1 month ([3]; accelerated stability): ≤ 0.1%
After 1 Month (%) Degradant [4]: 1.320%
After 1 Month (%) Total Related substances [4]: 2.026%
Change (%) Degradant [4]: 1.316%
Initial (%) Degradant [4]: 0.004%
Initial (%) Total Related substances [4]: 0.146%
Change in Quality (%) 60 °C (4 weeks) Degradant [4]: 1.316%
Change in Quality (%) 60 °C (4 weeks) Purity [4]: -1.880%
After Ultraviolet Light Exposure (200 W hr/m2)(%) Degradant [5]: 0.011%
After Ultraviolet Light Exposure (200 W hr/m2)(%) Total Related substances [5]: 0.172%
Change (%) Degradant [5]: 0.007%
Initial (%) Degradant [5]: 0.004%
Initial (%) Total Related substances [5]: 0.146%
Change in Quality (%) Light (Ultraviolet) Degradant ([5]; Table 12 summary): 0.007%

Cc1nc2c(O[C@H]3CCOc4cc(F)cc(F)c43)cc(C(=O)N(C)C)cc2[nH]1 [Methanesulfonate Salt (Amorphous Form)]
After 24 hours Purity (%) ([6]; 20 mg/mL in purified water): 99.34%
Initial Purity (%) [6, 7]: 99.90%
After 24 hours Degradant (%) [6, 8]: 0.552%
Initial Degradant (%) ([6]; degradant of Formula 4, 20 mg/mL in purified water, initial time point): 0.063%
Amount of Change Degradant (%) ([6]; initial vs after 24 hours at 40 °C): 0.49%
Change (%) Degradant [1]: 0.154%
Initial (%) Degradant [1]: 0.284%
Initial (%) Total Related substances [1]: 0.530%
After (%) Degradant [1]: 0.438%
After (%) Total Related substances [1]: 0.909%
Change in Quality (%) Light (Visible) Degradant [1]: 0.154%
absorb moisture and deliquesce / melted ([2]; 90 % RH): absorb moisture and deliquesce
Remarks ([2]; 90 % RH, 1 month): Melted
Initial (%) Degradant [2]: 0.284%
Initial (%) Total Related substances [2]: 0.530%
Change in Quality (%) 90 % RH (4 weeks) Degradant [2]: Melted
Change in Quality (%) 90 % RH (4 weeks) Purity [2]: Melted
After 1 Month (%) Degradant [3]: 1.124%
After 1 Month (%) Total Related substances [3]: 1.653%
Change (%) Degradant [3]: 0.840%
Initial (%) Total Related substances [3]: 0.530%
Initial (%) Degradant [3]: 0.284%
Change in Quality (%) Accelerated (4 weeks) Degradant [3]: 0.840%
Change in Quality (%) Accelerated (4 weeks) Purity [3]: -1.123%
increase in total related substances after 1 month ([3]; accelerated stability): ≥ 0.3%
total related substances increased after 1 month [4]: ≥ 5.0%
After 1 Month (%) Degradant [4]: 9.245%
After 1 Month (%) Total Related substances [4]: 12.245%
change in appearance, change in the color of the solid [4]: change in appearance
Change (%) Degradant [4]: 8.961%
Remarks [4]: Discolorat ion
Initial (%) Degradant [4]: 0.284%
Initial (%) Total Related substances [4]: 0.530%
Change in Quality (%) 60 °C (4 weeks) Degradant [4]: 8.961%
After Ultraviolet Light Exposure (200 W hr/m2)(%) Degradant [5]: 0.366%
After Ultraviolet Light Exposure (200 W hr/m2)(%) Total Related substances [5]: 0.599%
Change (%) Degradant [5]: 0.082%
Initial (%) Degradant [5]: 0.284%
Initial (%) Total Related substances [5]: 0.530%
Change in Quality (%) Light (Ultraviolet) Degradant ([5]; Table 12 summary): 0.082%
Change in Quality (%) Light (Ultraviolet) Purity ([5]; Table 12 summary): 0.069%

maleate
solid precipitation / solution state [6]: a solid precipitated
absorb moisture and deliquesce / melted ([2]; 90 % RH): deliquesced
